Assays:
Mus musculus = experiment: Antiinflammatory activity, administered ip at 150 uM/kg dose was determined against carrageenan-induced mice paw edema model; assay type: functional; conditions: at 150 µmol/kg
Rattus norvegicus [1] = experiment: Hypolipidemic action at 500 uM/kg was determined as reduction in triglycerides in rat plasma; assay type: functional
Rattus norvegicus [2] = experiment: Hypolipidemic action at 500 uM/kg was determined as reduction in total cholesterol in rat plasma
Rattus norvegicus [3] = experiment: Mortality caused by the compound in rats after administration at 1350 uM/kg for 4 days; assay type: functional
Rattus norvegicus [4] = experiment: Ulcerogenic activity administered once daily at 1350 uM/kg for 4 days was determined as no of animals showing perforating ulcers; assay type: functional
Rattus norvegicus [5] = experiment: Body weight change after once daily administration for 4 days in rats was determined; assay type: functional
Rattus norvegicus [6] = experiment: Hypolipidemic action at 500 uM/kg was determined as reduction in low density lipoprotein in rat plasma; assay type: functional
Rattus norvegicus [7] = experiment: Ulcerogenic activity administered once daily at 84 uM/kg for 4 days was determined as no of animals showing perforating ulcers; assay type: functional
Rattus norvegicus [8] = experiment: Mortality caused by the compound in rats after administration at 84 uM/kg for 4 days; assay type: functional
Rattus norvegicus [9] = experiment: Body weight change after once daily administration at 84 uM/kg for 4 days in rats was determined; assay type: functional
Rattus norvegicus [10] = species: Rattus norvegicus; experiment: In vitro ability to inhibit the peroxidation of rat hepatic microsomal lipids; assay type: functional; conditions: Liver
Rattus norvegicus [11] = experiment: Ulcerogenic activity administered once daily for 4 days at 84 uM/kg was determined as no of animals showing perforating ulcers; assay type: functional
Rattus norvegicus [12] = species: Rattus norvegicus; experiment: In vitro ability to inhibit the peroxidation of rat hepatic microsomal lipids at 1 mM concentration; assay type: functional; conditions: Liver
Rattus norvegicus [13] = experiment: Body weight change after once daily administration for 4 days at 84 uM/kg in rats was determined; assay type: functional
Rattus norvegicus [14] = experiment: Hypolipidemic action at 250 uM/kg was determined as reduction in triglycerides in rat plasma; assay type: functional
Rattus norvegicus [15] = experiment: Ulcerogenic activity administered once daily at 1600 uM/kg for 4 days was determined as no of animals showing perforating ulcers; assay type: functional
Rattus norvegicus [16] = experiment: Hypolipidemic action at 250 uM/kg was determined as reduction in low density lipoprotein in rat plasma; assay type: functional
Rattus norvegicus [17] = experiment: Hypolipidemic action at 250 uM/kg was determined as reduction in total cholesterol in rat plasma; assay type: functional
Rattus norvegicus [18] = experiment: Mortality caused by the compound in rats after administration at 1600 uM/kg for 4 days; assay type: functional
Rattus norvegicus [19] = experiment: Ulcerogenic activity administered once daily at 240 uM/kg for 4 days was determined as no of animals showing perforating ulcers; assay type: functional
Rattus norvegicus [20] = experiment: Ulcerogenic activity administered once daily at 760 uM/kg for 4 days was determined as no of animals showing perforating ulcers; assay type: functional
Rattus norvegicus [21] = experiment: Mortality caused by the compound in rats after administration at 760 uM/kg for 4 days; assay type: functional
Rattus norvegicus [22] = experiment: Body weight change after once daily administration at 760 uM/kg for 4 days in rats was determined; assay type: functional
Rattus norvegicus [23] = experiment: Ulcerogenic activity administered once daily at 200 uM/kg for 4 days was determined as no of animals showing perforating ulcers; assay type: functional
Rattus norvegicus [24] = experiment: Body weight change after once daily administration at 200 uM/kg for 4 days in rats was determined; assay type: functional
Rattus norvegicus [25] = experiment: Mortality caused by the compound in rats after administration at 200 uM/kg for 4 days; assay type: functional
Rattus norvegicus [26] = experiment: Mortality caused by the compound in rats after administration at 1200 uM/kg for 4 days; assay type: functional
Rattus norvegicus [27] = experiment: Ulcerogenic activity administered once daily at 1200 uM/kg for 4 days was determined as no of animals showing perforating ulcers; assay type: functional
Rattus norvegicus [28] = experiment: Hypolipidemic action at 300 uM/kg was determined as reduction in triglycerides in rat plasma; assay type: functional
Rattus norvegicus [29] = experiment: Body weight change after once daily administration at 1600 uM/kg for 4 days in rats was determined; assay type: functional
Rattus norvegicus [30] = experiment: Hypolipidemic action at 300 uM/kg was determined as reduction in total cholesterol in rat plasma; assay type: functional
Rattus norvegicus [31] = experiment: Hypolipidemic action at 300 uM/kg was determined as reduction in low density lipoprotein in rat plasma; assay type: functional
Rattus norvegicus [32] = experiment: Body weight change after once daily administration at 240 uM/kg for 4 days in rats was determined; assay type: functional
Rattus norvegicus [33] = experiment: Mortality caused by the compound in rats after administration at 240 uM/kg for 4 days; assay type: functional

SMILES	Edema inhibition (Mus musculus) [%]	Paw weight increase (Mus musculus) [%]	Decrease (Rattus norvegicus [1]) [%]	Decrease (Rattus norvegicus [2]) [%]	Decrease (Rattus norvegicus [6]) [%]	further results
COc1ccc2cc([C@H](C)C(=O)O)ccc2c1 [NAPROXEN]	11	50.4	25.5	53	43.5	Mortality (Rattus norvegicus [3]): 50%; Ulcerogenic activity (Rattus norvegicus [4]): 100%; Body weight change (Rattus norvegicus [5]): -15.8 g (100g of body weight)-1
COc1ccc2c(c1)c(CC(=O)O)c(C)n2C(=O)c1ccc(Cl)cc1 [INDOMETHACIN]	41.6	22.5	78.6	74.4	72.2	Ulcerogenic activity (Rattus norvegicus [7]): 80%; Mortality (Rattus norvegicus [8]): 50%; Body weight change (Rattus norvegicus [9]): -13 g (100g of body weight)-1
CCOC(=O)[C@H](CS)NC(=O)Cc1c(C)n(C(=O)c2ccc(Cl)cc2)c2ccc(OC)cc12	63.3	14.1	19.8	37	60.5	IC50 (Rattus norvegicus [10]): 51 µM; Ulcerogenic activity (Rattus norvegicus [11]): 0%; Mortality (Rattus norvegicus [8]): 0%; inhibition (Rattus norvegicus [12]): 100%; Body weight change (Rattus norvegicus [13]): 3.4 g (100g of body weight)-1
CCOC(=O)[C@@H](N)CS	24.9	29.2				
CCOC(=O)[C@H](CS)NC(=O)C(C)c1ccc(CC(C)C)cc1 (stereo not given in full)	61.2	19.1				Decrease (Rattus norvegicus [14]): 27.5%; Ulcerogenic activity (Rattus norvegicus [15]): 0%; IC50 (Rattus norvegicus [10]): 38 µM; Decrease (Rattus norvegicus [16]): 68.7%; inhibition (Rattus norvegicus [12]): 100%; Body weight change (Rattus norvegicus [5]): 1 g (100g of body weight)-1; Decrease (Rattus norvegicus [17]): 48.1%; Mortality (Rattus norvegicus [18]): 0%
CCOC(=O)[C@@H](N)CS.O=C(O)c1ccccc1Nc1cccc(C(F)(F)F)c1	9	61.9				
CCOC(=O)[C@@H](N)CS.COc1ccc2cc(C(C)C(=O)O)ccc2c1 (stereo not given)	38.1	30.1				
CCOC(=O)[C@H](CS)NC(=O)C(C)c1ccc2cc(OC)ccc2c1 (stereo not given in full)	37.1	35.6	29.6	33.8	46.8	IC50 (Rattus norvegicus [10]): 28 µM; Mortality (Rattus norvegicus [3]): 0%; Ulcerogenic activity (Rattus norvegicus [4]): 0%; inhibition (Rattus norvegicus [12]): 100%; Body weight change (Rattus norvegicus [5]): 9.2 g (100g of body weight)-1
O=C([O-])Cc1ccccc1Nc1c(Cl)cccc1Cl.[Na+] [DICLOFENAC SODIUM]	37.1	24.5	96.1	87.4	86.3	Ulcerogenic activity (Rattus norvegicus [19]): 75%
Cc1c(Cl)cccc1Nc1ccccc1C(=O)O [TOLFENAMIC ACID]	24	27.6				Ulcerogenic activity (Rattus norvegicus [20]): 50%; Mortality (Rattus norvegicus [21]): 50%; Body weight change (Rattus norvegicus [22]): -5.3 g (100g of body weight)-1
CC(C(=O)O)c1cccc(C(=O)c2ccccc2)c1.CCOC(=O)[C@@H](N)CS (stereo not given)	39	41.6				
CCOC(=O)[C@H](CS)NC(=O)C(C)c1cccc(C(=O)c2ccccc2)c1 (stereo not given in full)	29	48				Ulcerogenic activity (Rattus norvegicus [23]): 0%; IC50 (Rattus norvegicus [10]): 650 µM; inhibition (Rattus norvegicus [12]): 100%; Body weight change (Rattus norvegicus [24]): 0.3 g (100g of body weight)-1; Mortality (Rattus norvegicus [25]): 0%
CCOC(=O)[C@@H](N)CS.COc1ccc2c(c1)c(CC(=O)O)c(C)n2C(=O)c1ccc(Cl)cc1	32.8	25.8				
O=C(O)c1ccccc1Nc1cccc(C(F)(F)F)c1 [FLUFENAMIC ACID]	19	55.4				Mortality (Rattus norvegicus [26]): 50%; Body weight change (Rattus norvegicus [5]): -9.2 g (100g of body weight)-1; Ulcerogenic activity (Rattus norvegicus [27]): 50%
CCOC(=O)[C@@H](N)CS.Cc1c(Cl)cccc1Nc1ccccc1C(=O)O	25.9	25.5				
CCOC(=O)[C@@H](N)CS.O=C([O-])Cc1ccccc1Nc1c(Cl)cccc1Cl.[Na+]	27.7	28.2				
CC(C)Cc1ccc(C(C)C(=O)O)cc1 (stereo not given) [IBUPROFEN]	35.6	31.7				Decrease (Rattus norvegicus [28]): 41.6%; Ulcerogenic activity (Rattus norvegicus [15]): 88%; Mortality (Rattus norvegicus [18]): 50%; Body weight change (Rattus norvegicus [29]): -12.7 g (100g of body weight)-1; Decrease (Rattus norvegicus [30]): 38.2%; Decrease (Rattus norvegicus [31]): 31.6%
CC(C(=O)O)c1cccc(C(=O)c2ccccc2)c1 (stereo not given) [KETOPROFEN]		35.9				Ulcerogenic activity (Rattus norvegicus [23]): 83%; Body weight change (Rattus norvegicus [24]): -18.9 g (100g of body weight)-1; Mortality (Rattus norvegicus [25]): 50%
CCOC(=O)[C@H](CS)NC(=O)Cc1ccccc1Nc1c(Cl)cccc1Cl	59.3	11.8	31.6	54.7	92.6	Body weight change (Rattus norvegicus [32]): 3.1 g (100g of body weight)-1; IC50 (Rattus norvegicus [10]): 27 µM; inhibition (Rattus norvegicus [12]): 100%; Mortality (Rattus norvegicus [33]): 0%; Ulcerogenic activity (Rattus norvegicus [19]): 0%

Source: ChEMBL document CHEMBL1147486 (Bioorg Med Chem Lett, 2004)
